Values quoted from earlier work, collected in patent US20080234349A1, “PPAR active compounds” (priority 2005, published 2008).

Assays:
[1] = target: T1, PPARδ (Homo sapiens, UniProt Q03181)
T1 sequence (Q03181 1-441): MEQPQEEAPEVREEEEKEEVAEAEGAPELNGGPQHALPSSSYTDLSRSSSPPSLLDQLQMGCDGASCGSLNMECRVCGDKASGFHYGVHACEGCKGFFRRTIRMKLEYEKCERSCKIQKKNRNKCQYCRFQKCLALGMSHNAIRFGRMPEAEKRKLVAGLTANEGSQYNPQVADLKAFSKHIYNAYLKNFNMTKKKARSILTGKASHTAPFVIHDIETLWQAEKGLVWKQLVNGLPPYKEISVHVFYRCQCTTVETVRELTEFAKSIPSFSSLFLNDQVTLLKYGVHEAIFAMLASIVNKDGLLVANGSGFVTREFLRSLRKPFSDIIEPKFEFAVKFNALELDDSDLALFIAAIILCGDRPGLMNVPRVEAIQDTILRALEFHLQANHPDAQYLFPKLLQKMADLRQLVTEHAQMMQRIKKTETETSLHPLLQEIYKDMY

[2] = target: T2, murine PPARα (Mus musculus, UniProt P23204)
T2 sequence (P23204 1-468): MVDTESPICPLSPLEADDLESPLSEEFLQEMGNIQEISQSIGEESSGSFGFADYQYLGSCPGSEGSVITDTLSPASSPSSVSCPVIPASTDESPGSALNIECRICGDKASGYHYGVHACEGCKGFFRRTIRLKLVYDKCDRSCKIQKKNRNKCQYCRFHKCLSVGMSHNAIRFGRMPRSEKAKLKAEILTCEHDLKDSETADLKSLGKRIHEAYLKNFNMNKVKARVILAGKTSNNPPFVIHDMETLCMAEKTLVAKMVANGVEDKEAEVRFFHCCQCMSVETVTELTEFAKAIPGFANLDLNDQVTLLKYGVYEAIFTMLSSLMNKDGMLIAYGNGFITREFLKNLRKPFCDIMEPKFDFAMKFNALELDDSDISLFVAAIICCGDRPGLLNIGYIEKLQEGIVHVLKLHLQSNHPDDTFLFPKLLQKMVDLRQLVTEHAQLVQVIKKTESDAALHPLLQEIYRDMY

[3] = recent large prospective trial, patients

In the case of CCCc1c(OCCCOc2ccc(OCC(=O)O)cc2)ccc(C(C)=O)c1O [Compound L-165041], the “agonist selectivity for PPARδ over PPARγ” value [1] is given as “approximately 30 fold” and the “activity on murine PPARα” value [2] is given as “inactive”.

For Cc1ccc(C)c(OCCCC(C)(C)C(=O)O)c1 [gemfibrozil], the “reduction in cardiovascular events or death” value [3] is given as 22%.
